How the values were obtained:
Assay in all cases: KAM-matrix competition in K562 lysate;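 as to 0.001 uM KAM: median log10 fold change of treatment over DMSO control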;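 as to 0.01 uM KAM: median log10 fold change of treatment over DMSO control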;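 as to 0.1 uM KAM: median log10 fold change of treatment over DMSO control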;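 as to 1 uM KAM: median log10 fold change of treatment over DMSO control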;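 as to 10 uM KAM: median log10 fold change of treatment over DMSO control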
Type in all cases: binding
[1] = biological target: T1, NME7 (Homo sapiens, UniProt Q9Y5B8);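 as to 0.001 uM KAM: median log10 fold change of treatment over DMSO control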;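 as to 0.01 uM KAM: median log10 fold change of treatment over DMSO control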;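 as to 0.1 uM KAM: median log10 fold change of treatment over DMSO control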;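 as to 1 uM KAM: median log10 fold change of treatment over DMSO control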;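 as to 10 uM KAM: median log10 fold change of treatment over DMSO control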
T1 construct: endogenous in cells; host or cells: K562
T1 sequence (Q9Y5B8 1-376): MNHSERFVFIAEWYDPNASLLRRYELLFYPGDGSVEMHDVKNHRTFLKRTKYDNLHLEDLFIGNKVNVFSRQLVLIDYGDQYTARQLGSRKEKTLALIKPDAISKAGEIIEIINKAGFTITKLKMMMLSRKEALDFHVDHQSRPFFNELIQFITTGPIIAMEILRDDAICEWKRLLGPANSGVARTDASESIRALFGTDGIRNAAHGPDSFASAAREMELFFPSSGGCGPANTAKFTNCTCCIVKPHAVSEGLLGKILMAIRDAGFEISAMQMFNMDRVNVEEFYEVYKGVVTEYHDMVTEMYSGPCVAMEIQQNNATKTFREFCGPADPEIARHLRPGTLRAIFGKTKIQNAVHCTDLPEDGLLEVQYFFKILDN
Description: (§1) Supplement 12953_2017_125_MOESM1_ESM.zip/MS_Supp Info.xlsx, sheet "KAM" | column: 10 uM KAM; 1 uM KAM; 0.1 uM KAM; 0.01 uM KAM; 0.001 uM KAM; RB50

[2] = biological target: T2, STK38 (Homo sapiens, UniProt Q15208)
T2 construct: endogenous in cells; host or cells: K562
T2 sequence (Q15208 whole entry): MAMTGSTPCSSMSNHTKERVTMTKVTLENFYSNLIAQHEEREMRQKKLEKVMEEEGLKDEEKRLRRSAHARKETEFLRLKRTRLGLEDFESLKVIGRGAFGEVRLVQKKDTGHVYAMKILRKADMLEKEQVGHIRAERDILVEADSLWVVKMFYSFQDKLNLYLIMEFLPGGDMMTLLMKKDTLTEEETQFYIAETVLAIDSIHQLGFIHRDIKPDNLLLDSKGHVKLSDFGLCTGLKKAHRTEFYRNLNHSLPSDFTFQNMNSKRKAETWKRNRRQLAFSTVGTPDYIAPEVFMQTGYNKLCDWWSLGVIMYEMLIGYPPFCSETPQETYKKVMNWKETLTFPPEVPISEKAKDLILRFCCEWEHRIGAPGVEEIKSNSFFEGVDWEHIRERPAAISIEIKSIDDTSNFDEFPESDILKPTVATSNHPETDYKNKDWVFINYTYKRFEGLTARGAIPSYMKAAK
Description: as §1

[3] = biological target: T3, MARK3 (Homo sapiens, UniProt P27448)
T3 construct: endogenous in cells; host or cells: K562
Description: as §1

[4] = biological target: T4, CAMKK1 (Homo sapiens, UniProt Q8N5S9)
T4 construct: endogenous in cells; host or cells: K562
Description: as §1

[5] = biological target: T5, ROCK1 (Homo sapiens, UniProt Q13464);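 as to 0.001 uM KAM: median log10 fold change of treatment over DMSO control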;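 as to 0.01 uM KAM: median log10 fold change of treatment over DMSO control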;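 as to 0.1 uM KAM: median log10 fold change of treatment over DMSO control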;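 as to 1 uM KAM: median log10 fold change of treatment over DMSO control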;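 as to 10 uM KAM: median log10 fold change of treatment over DMSO control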
T5 construct: endogenous in cells; host or cells: K562
T5 sequence (Q13464 whole entry): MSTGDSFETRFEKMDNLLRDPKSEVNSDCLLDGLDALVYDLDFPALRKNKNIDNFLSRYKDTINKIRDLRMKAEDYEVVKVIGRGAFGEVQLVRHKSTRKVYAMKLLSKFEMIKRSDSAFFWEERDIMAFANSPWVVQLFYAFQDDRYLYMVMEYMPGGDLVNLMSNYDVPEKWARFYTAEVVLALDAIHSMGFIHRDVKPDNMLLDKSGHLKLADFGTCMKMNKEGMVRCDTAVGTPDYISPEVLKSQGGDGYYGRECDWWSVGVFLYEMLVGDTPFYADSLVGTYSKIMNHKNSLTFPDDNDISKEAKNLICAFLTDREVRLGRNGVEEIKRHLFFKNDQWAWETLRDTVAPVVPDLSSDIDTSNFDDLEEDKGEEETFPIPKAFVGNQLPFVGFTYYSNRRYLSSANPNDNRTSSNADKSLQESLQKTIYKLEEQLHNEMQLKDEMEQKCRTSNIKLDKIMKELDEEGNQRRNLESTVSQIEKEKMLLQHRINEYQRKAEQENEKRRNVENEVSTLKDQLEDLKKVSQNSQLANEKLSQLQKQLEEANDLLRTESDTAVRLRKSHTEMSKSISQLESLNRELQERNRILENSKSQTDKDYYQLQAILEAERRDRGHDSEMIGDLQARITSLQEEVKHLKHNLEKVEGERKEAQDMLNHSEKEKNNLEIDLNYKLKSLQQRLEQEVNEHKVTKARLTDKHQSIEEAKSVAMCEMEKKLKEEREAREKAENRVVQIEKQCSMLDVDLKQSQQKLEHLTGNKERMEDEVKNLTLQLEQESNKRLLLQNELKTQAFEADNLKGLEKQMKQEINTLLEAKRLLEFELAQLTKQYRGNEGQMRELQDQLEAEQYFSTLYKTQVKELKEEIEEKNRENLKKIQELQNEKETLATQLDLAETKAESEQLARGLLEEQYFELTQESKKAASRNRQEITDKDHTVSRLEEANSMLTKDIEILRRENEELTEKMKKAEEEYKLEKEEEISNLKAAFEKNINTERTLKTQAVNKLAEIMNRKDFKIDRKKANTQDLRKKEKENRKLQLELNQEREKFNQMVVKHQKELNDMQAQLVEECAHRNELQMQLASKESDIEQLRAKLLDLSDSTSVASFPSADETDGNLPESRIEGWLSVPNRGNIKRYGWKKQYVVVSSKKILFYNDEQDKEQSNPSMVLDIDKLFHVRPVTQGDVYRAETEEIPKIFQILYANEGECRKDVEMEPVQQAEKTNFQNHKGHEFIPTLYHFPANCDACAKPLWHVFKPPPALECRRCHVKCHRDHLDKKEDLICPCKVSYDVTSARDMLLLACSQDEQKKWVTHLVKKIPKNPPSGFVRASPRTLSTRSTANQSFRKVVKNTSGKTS
Description: as §1

[6] = biological target: T6, LRRK2 (Homo sapiens, UniProt Q5S007);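 as to 0.001 uM KAM: median log10 fold change of treatment over DMSO control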;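 as to 0.01 uM KAM: median log10 fold change of treatment over DMSO control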;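 as to 0.1 uM KAM: median log10 fold change of treatment over DMSO control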;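 as to 1 uM KAM: median log10 fold change of treatment over DMSO control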;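 as to 10 uM KAM: median log10 fold change of treatment over DMSO control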
T6 construct: endogenous in cells; host or cells: K562
T6 sequence (Q5S007 whole entry): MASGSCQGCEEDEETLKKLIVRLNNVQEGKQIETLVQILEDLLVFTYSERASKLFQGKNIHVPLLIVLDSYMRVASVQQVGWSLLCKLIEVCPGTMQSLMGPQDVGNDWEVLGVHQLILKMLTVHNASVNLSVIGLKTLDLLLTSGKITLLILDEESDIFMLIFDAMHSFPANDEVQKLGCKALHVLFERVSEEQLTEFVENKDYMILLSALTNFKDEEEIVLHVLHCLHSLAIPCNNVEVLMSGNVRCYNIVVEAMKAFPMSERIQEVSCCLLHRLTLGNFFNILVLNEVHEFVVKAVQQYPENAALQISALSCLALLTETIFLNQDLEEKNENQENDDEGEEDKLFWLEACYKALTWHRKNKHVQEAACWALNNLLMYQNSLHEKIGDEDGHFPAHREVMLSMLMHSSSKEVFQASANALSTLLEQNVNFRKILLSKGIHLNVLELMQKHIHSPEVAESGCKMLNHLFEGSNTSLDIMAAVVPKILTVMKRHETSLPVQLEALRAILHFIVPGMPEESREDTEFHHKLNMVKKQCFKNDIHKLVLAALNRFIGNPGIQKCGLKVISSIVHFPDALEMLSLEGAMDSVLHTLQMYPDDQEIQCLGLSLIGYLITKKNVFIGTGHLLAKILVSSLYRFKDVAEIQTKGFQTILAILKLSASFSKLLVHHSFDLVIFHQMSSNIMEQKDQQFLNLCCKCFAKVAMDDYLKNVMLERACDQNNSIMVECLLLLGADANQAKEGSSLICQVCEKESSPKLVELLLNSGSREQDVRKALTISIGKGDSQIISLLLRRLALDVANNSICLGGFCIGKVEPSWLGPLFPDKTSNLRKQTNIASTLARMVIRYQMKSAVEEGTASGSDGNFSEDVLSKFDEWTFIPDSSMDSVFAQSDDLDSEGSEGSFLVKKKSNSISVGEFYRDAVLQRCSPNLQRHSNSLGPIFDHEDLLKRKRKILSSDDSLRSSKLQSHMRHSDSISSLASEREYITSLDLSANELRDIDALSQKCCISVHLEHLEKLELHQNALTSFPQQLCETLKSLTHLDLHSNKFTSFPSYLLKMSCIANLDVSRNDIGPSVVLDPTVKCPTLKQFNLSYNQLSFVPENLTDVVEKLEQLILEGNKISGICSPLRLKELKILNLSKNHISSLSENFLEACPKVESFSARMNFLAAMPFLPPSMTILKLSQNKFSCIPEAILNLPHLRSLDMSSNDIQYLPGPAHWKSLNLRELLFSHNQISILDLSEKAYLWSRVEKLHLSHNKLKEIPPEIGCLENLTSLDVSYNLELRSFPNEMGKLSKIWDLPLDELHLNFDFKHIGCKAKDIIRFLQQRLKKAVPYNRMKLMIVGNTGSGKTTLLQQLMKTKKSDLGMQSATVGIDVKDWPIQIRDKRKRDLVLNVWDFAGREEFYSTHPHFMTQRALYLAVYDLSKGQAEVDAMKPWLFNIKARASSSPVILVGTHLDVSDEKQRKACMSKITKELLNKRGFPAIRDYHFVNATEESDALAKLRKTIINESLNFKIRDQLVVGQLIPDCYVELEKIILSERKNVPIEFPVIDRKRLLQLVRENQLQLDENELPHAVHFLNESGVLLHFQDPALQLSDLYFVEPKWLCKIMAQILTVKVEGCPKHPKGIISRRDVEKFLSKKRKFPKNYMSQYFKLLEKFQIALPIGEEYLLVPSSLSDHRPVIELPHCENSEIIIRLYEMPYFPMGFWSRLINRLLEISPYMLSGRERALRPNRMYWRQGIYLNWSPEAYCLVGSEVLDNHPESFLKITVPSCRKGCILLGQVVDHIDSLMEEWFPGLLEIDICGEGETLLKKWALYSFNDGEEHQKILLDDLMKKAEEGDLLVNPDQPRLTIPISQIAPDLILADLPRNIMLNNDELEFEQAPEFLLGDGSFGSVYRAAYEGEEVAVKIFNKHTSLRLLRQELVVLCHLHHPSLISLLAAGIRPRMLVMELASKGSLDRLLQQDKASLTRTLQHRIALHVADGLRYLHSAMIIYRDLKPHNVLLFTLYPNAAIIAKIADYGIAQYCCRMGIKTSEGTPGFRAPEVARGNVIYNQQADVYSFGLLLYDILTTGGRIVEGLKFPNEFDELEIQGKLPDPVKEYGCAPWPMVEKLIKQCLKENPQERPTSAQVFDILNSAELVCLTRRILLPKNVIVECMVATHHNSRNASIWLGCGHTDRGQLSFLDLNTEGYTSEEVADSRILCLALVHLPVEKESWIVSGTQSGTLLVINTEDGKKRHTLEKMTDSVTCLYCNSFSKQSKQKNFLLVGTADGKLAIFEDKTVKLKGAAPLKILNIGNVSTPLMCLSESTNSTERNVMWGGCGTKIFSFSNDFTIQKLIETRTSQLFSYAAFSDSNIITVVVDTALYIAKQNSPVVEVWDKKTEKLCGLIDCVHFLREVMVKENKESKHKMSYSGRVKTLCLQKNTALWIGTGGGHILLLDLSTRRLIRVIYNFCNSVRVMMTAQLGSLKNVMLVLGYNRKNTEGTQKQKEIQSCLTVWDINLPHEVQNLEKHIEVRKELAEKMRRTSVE
Description: as §1

[7] = biological target: T7, MAPK14 (Homo sapiens, UniProt Q16539);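 as to 0.001 uM KAM: median log10 fold change of treatment over DMSO control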;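 as to 0.01 uM KAM: median log10 fold change of treatment over DMSO control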;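 as to 0.1 uM KAM: median log10 fold change of treatment over DMSO control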;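 as to 1 uM KAM: median log10 fold change of treatment over DMSO control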;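 as to 10 uM KAM: median log10 fold change of treatment over DMSO control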
T7 construct: endogenous in cells; host or cells: K562
T7 sequence (Q16539 whole entry): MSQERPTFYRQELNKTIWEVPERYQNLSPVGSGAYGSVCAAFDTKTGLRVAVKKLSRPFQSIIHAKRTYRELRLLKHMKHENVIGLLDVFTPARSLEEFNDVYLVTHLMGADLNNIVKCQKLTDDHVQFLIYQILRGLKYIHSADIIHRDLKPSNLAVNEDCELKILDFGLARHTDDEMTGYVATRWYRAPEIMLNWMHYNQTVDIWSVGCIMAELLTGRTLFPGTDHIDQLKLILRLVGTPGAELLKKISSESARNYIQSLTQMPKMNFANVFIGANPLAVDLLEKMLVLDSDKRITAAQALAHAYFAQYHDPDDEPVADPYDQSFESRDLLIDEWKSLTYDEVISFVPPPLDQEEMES
Description: as §1

[8] = biological target: T8, GUCY2F (Homo sapiens, UniProt P51841);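 as to 0.001 uM KAM: median log10 fold change of treatment over DMSO control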;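 as to 0.01 uM KAM: median log10 fold change of treatment over DMSO control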;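 as to 0.1 uM KAM: median log10 fold change of treatment over DMSO control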;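 as to 1 uM KAM: median log10 fold change of treatment over DMSO control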;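 as to 10 uM KAM: median log10 fold change of treatment over DMSO control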
T8 construct: endogenous in cells; host or cells: K562
T8 sequence (P51841 51-1108): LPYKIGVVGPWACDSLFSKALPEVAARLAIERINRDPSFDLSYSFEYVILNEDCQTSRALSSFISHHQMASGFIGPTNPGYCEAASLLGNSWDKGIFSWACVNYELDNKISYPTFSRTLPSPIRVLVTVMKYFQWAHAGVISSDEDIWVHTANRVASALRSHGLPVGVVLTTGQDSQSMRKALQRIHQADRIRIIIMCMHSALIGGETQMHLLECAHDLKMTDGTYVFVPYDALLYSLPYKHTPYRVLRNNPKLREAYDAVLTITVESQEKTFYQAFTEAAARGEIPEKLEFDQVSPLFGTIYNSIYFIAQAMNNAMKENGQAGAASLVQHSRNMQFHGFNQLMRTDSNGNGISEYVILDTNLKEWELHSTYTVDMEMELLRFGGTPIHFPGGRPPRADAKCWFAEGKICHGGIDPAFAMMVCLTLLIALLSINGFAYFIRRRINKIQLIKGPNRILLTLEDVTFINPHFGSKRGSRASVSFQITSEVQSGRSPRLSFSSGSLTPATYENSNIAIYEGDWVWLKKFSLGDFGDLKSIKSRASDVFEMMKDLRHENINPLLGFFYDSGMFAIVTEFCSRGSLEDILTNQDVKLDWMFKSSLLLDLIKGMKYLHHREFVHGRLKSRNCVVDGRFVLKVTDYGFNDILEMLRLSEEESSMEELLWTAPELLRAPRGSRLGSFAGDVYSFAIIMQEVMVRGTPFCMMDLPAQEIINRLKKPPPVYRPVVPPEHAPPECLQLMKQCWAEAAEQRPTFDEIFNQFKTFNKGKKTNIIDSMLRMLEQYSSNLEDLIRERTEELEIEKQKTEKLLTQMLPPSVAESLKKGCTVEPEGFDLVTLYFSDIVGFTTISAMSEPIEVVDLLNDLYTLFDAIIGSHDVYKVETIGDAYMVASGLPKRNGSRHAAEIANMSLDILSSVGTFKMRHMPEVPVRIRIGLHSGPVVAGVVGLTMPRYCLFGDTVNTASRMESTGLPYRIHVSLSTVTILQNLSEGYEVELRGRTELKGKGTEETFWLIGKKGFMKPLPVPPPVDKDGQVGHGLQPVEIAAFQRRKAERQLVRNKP
Description: as §1

[9] = biological target: T9, CSK (Homo sapiens, UniProt P41240);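 as to 0.001 uM KAM: median log10 fold change of treatment over DMSO control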;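 as to 0.01 uM KAM: median log10 fold change of treatment over DMSO control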;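 as to 0.1 uM KAM: median log10 fold change of treatment over DMSO control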;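 as to 1 uM KAM: median log10 fold change of treatment over DMSO control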;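 as to 10 uM KAM: median log10 fold change of treatment over DMSO control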
T9 construct: endogenous in cells; host or cells: K562
Description: as §1

[10] = KAM 0.001-10 uM, read-out: RB50 (the source's name)
[11] = read-out: RB50 (the source's name)

## N#CCc1ccc(Nc2nc(NCCCN)cc(Nc3cc(C4CC4)[nH]n3)n2)cc1 [KAM]
[1]; [10]
  IC50: > 10 µM
[1]; relative to 0 uM KAM = 0
  0.001 uM KAM: -0.02057
  0.01 uM KAM: -0.007814
  0.1 uM KAM: 0.03797
  1 uM KAM: 0.05362
  10 uM KAM: 0.03977
[2]; 0.001 uM KAM
  median Log10 fold change: -0.121
[2]; 0.01 uM KAM
  median Log10 fold change: -0.04373
[2]; 0.1 uM KAM
  median Log10 fold change: -0.1647
[2]; 1 uM KAM
  median Log10 fold change: -0.3238
[2]; 10 uM KAM
  median Log10 fold change: -0.6242
[2]; [11]
  IC50: 0.752 µM
[3]; 0.001 uM KAM
  median Log10 fold change: -0.0002127
[3]; 0.01 uM KAM
  median Log10 fold change: -0.02099
[3]; 0.1 uM KAM
  median Log10 fold change: -0.2742
[3]; 1 uM KAM
  median Log10 fold change: -0.5652
[3]; 10 uM KAM
  median Log10 fold change: -0.6472
[3]; [11]
  IC50: 0.16 µM
[4]; 0.001 uM KAM
  median Log10 fold change: -0.02592
[4]; 0.01 uM KAM
  median Log10 fold change: -0.02355
[4]; 0.1 uM KAM
  median Log10 fold change: -0.2718
[4]; 1 uM KAM
  median Log10 fold change: -0.415
[4]; 10 uM KAM
  median Log10 fold change: -0.4583
[4]; [11]
  IC50: 0.248 µM
[5]; [10]
  IC50: > 10 µM
[5]; relative to 0 uM KAM = 0
  0.001 uM KAM: -0.0607
  0.01 uM KAM: -0.006672
  0.1 uM KAM: -0.08063
  1 uM KAM: -0.07367
  10 uM KAM: -0.1223
[6]; [10]
  IC50: > 10 µM
[6]; relative to 0 uM KAM = 0
  0.001 uM KAM: -0.05098
  0.01 uM KAM: -0.01752
  0.1 uM KAM: 0.02155
  1 uM KAM: 0.06199
  10 uM KAM: -0.09009
[7]; [10]
  IC50: > 10 µM
[7]; relative to 0 uM KAM = 0
  0.001 uM KAM: -0.03046
  0.01 uM KAM: 0.03223
  0.1 uM KAM: 0.1026
  1 uM KAM: 0.08115
  10 uM KAM: 0.173
[8]; [10]
  IC50: > 10 µM
[8]; relative to 0 uM KAM = 0
  0.001 uM KAM: -0.02463
  0.01 uM KAM: -0.02113
  0.1 uM KAM: 0.03818
  1 uM KAM: 0.1179
  10 uM KAM: -0.02163
[9]; [10]
  IC50: > 10 µM
[9]; relative to 0 uM KAM = 0
  0.001 uM KAM: 0.01067
  0.01 uM KAM: -0.02135
  0.1 uM KAM: 0.028
  1 uM KAM: -0.04258
  10 uM KAM: -0.03639

Source: article PMC5513037, “Examining the influence of specificity ligands and ATP-competitive ligands on the overall effectiveness of bivalent kinase inhibitors” (Proteome Science, 2017)
